Where “and” joins values, the source holds several entries; their conditions need not be identical. Equal values may be shown once.
Experiments:
Assay in all cases: Postemergent herbicidal activity, greenhouse
Format in all cases: in vivo
[1] = tested on: AMARE Amaranthus retroflexus L. (redroot pigweed)
Experimental: (§1) Evaluation of Postemergent Herbicidal Activity. Seeds or nutlets of the desired test plant species were planted in Sun Gro Metro-Mix® 360 planting mixture, which typically has a pH of 6.0 to 6.8 and an organic matter content of about 30 percent, in plastic pots with a surface area of 64 square centimeters (cm^2). When required to ensure good germination and healthy plants, a fungicide treatment and/or other chemical or physical treatment was applied. The plants were grown for 7-21 days (d) in a greenhouse with an approximate 15 hour (h) photoperiod which was maintained at about 23-29° C. during the day and 22-28° C. during the night. Nutrients and water were added on a regular basis and supplemental lighting was provided with overhead metal halide 1000-Watt lamps as necessary. The plants were employed for testing when they reached the first or second true leaf stage.
(§2) A weighed amount, determined by the highest rate to be tested, of each test compound was placed in a 25 milliliter (mL) glass vial and was dissolved in 4 mL of a 97:3 volume per volume (v/v) mixture of acetone and dimethyl sulfoxide (DMSO) to obtain concentrated stock solutions. […] The concentrated stock solutions obtained were diluted with 20 mL of an aqueous mixture containing acetone, water, isopropyl alcohol, DMSO, Atplus 411F crop oil concentrate, and Triton® X-155 surfactant in a 48.5:39:10:1.5:1.0:0.02 v/v ratio to obtain spray solutions containing the highest application rates. Additional application rates were obtained by serial dilution of 12 mL of the high rate solution into a solution containing 2 mL of a 97:3 v/v mixture of acetone and DMSO and 10 mL of an aqueous mixture containing acetone, water, isopropyl alcohol, DMSO, Atplus 411F crop oil concentrate, and Triton X-155 surfactant in a 48.5:39:10:1.5:1.0:0.02 v/v ratio to obtain ½X, ¼X, ⅛X and 1/16X rates of the high rate. Compound requirements are based upon a 12 mL application volume at a rate of 187 liters per hectare (L/ha). Formulated compounds were applied to the plant material with an overhead Mandel track sprayer equipped with 8002E nozzles calibrated to deliver 187 L/ha over an application area of 0.503 square meters (m^2) at a spray height of 18 inches ([…]) above the average plant canopy height. Control plants were sprayed in the same manner with the solvent blank.
(§3) Treatments consisted of the methyl ester of 4-amino-3-chloro-6-(4-chloro-2-fluoro-3-methoxyphenyl)pyridine-2-carboxylic acid (Cmpd 1) as technical grade material and fluazifop-P-butyl (Fusilade® DX), haloxyfop-P-methyl (GALLANT® super), and quizalofop-P-ethyl (Assure® II) alone and in combination. The form of compound of formula (I) and fluazifop-P-butyl, haloxyfop-P-methyl, and quizalofop-P-ethyl were applied on an acid equivalent basis.
(§4) The treated plants and control plants were placed in a greenhouse as described above and watered by subirrigation to prevent wash-off of the test compounds. After 14 d, the condition of the test plants as compared with that of the untreated plants was determined visually and scored on a scale of 0 to 100 percent where 0 corresponds to no injury and 100 corresponds to complete kill.
(§5) Results of testing mixtures in accordance with this disclosure and of the components of the mixtures separately against various common weeds in greenhouse trials are reported in the following tables. The reported values are of percent (%) control or percent (%) injury, visually rated. Colby's equation was used to determine the herbicidal effects expected from the mixtures (Colby, S. R. Calculation of the synergistic and antagonistic response of herbicide combinations. Weeds 1967, 15, 20-22.).
(§6) More specifically, the following equation was used to calculate the expected activity of mixtures containing two active ingredients, A and B:
(§7) A=observed efficacy of active ingredient A at the same concentration as used in the mixture; B=observed efficacy of active ingredient B at the same concentration as used in the mixture. […]

[2] = tested on: BRSNW Brassica napus (winter oilseed rape)
Experimental: as §1, §2, §3, §4, §5, §6, §7

[3] = tested on: CHEAL Chenopodium album L. (common lambsquarters)
Experimental: as §1, §2, §3, §4, §5, §6, §7

[4] = tested on: CYPES Cyperus esculentus L. (yellow nutsedge)
Experimental: as §1, §2, §3, §4, §5, §6, §7

[5] = tested on: IPOHE Ipomoea hederacea (L.) Jacq. (ivyleaf momingglory)
Experimental: as §1, §2, §3, §4, §5, §6, §7

[6] = tested on: STEME Stellaria media (L.) Vill. (common chickweed)
Experimental: as §1, §2, §3, §4, §5, §6, §7

[7] = tested on: VIOTR Viola tricolor L. (wild violet)
Experimental: as §1, §2, §3, §4, §5, §6, §7

[8] = tested on: ABUTH Abutilon theophrasti Medik. (velvetleaf)
Experimental: as §1, §2, §3, §4, §5, §6, §7

[9] = tested on: AVEFA Avena fatua L. (wild oat)
Experimental: as §1, §2, §3, §4, §5, §6, §7

[10] = tested on: CIRAR Cirsium arvense (L.) Scop. (Canada thistle)
Experimental: as §1, §2, §3, §4, §5, §6, §7

[11] = tested on: DIGSA Digitaria sanguinalis (L.) Scop. (large crabgrass)
Experimental: as §1, §2, §3, §4, §5, §6, §7

[12] = tested on: EPHHL Euphorbia heterophylla L. (wild poinsettia)
Experimental: as §1, §2, §3, §4, §5, §6, §7

[13] = tested on: GLXMA Glycine max (soybean)
Experimental: as §1, §2, §3, §4, §5, §6, §7

[14] = tested on: HELAN Helianthus annuus L. (common sunflower)
Experimental: as §1, §2, §3, §4, §5, §6, §7

[15] = tested on: SETFA Setaria faberi Herrm. (giant foxtail)
Experimental: as §1, §2, §3, §4, §5, §6, §7

[16] = tested on: SORVU Sorghum vulgare (common sorghum)
Experimental: as §1, §2, §3, §4, §5, §6, §7

## COC(=O)[C@@H](C)Oc1ccc(Oc2ncc(C(F)(F)F)cc2Cl)cc1 [Haloxyfop-P, haloxyfop-P-methyl]
[1]; Haloxyfop-P 35 g ae/ha
  Visual Growth Reduction (%) 14 DAA Obs: 0%
[1]; Haloxyfop-P 70 g ae/ha
  Visual Growth Reduction (%) 14 DAA Obs: 0%
[1]; Haloxyfop-P 140 g ae/ha
  Visual Growth Reduction (%) 14 DAA Obs: 0%
[2]; Haloxyfop-P 35 g ae/ha
  Visual Growth Reduction (%) 14 DAA Obs: 0%
[2]; Haloxyfop-P 70 g ae/ha
  Visual Growth Reduction (%) 14 DAA Obs: 0%
[2]; Haloxyfop-P 140 g ae/ha
  Visual Growth Reduction (%) 14 DAA Obs: 0%
[3]; Haloxyfop-P 35 g ae/ha
  Visual Growth Reduction (%) 14 DAA Obs: 0%
[3]; Haloxyfop-P 70 g ae/ha
  Visual Growth Reduction (%) 14 DAA Obs: 0%
[3]; Haloxyfop-P 140 g ae/ha
  Visual Growth Reduction (%) 14 DAA Obs: 0%
[4]; Haloxyfop-P 35 g ae/ha
  Visual Growth Reduction (%) 14 DAA Obs: 0%
[4]; Haloxyfop-P 70 g ae/ha
  Visual Growth Reduction (%) 14 DAA Obs: 0%
[4]; Haloxyfop-P 140 g ae/ha
  Visual Growth Reduction (%) 14 DAA Obs: 0%
[5]; Haloxyfop-P 35 g ae/ha
  Visual Growth Reduction (%) 14 DAA Obs: 0%
[5]; Haloxyfop-P 70 g ae/ha
  Visual Growth Reduction (%) 14 DAA Obs: 0%
[5]; Haloxyfop-P 140 g ae/ha
  Visual Growth Reduction (%) 14 DAA Obs: 0%
[6]; Haloxyfop-P 35 g ae/ha
  Visual Growth Reduction (%) 14 DAA Obs: 0%
[6]; Haloxyfop-P 70 g ae/ha
  Visual Growth Reduction (%) 14 DAA Obs: 0%
[6]; Haloxyfop-P 140 g ae/ha
  Visual Growth Reduction (%) 14 DAA Obs: 0%
[7]; Haloxyfop-P 35 g ae/ha
  Visual Growth Reduction (%) 14 DAA Obs: 0%
[7]; Haloxyfop-P 70 g ae/ha
  Visual Growth Reduction (%) 14 DAA Obs: 0%
[7]; Haloxyfop-P 140 g ae/ha
  Visual Growth Reduction (%) 14 DAA Obs: 0%

## COC(=O)c1nc(-c2ccc(Cl)c(OC)c2F)cc(N)c1Cl [Cmpd 1, methyl ester of 4-amino-3-chloro-6-(4-chloro-2-fluoro-3-methoxyphenyl)pyridine-2-carboxylic acid]
[8]; Cmpd 1 1.25 g ae/ha
  Visual Growth Reduction (%) 14 DAA Obs: 80%
[8]; Cmpd 1 2.5 g ae/ha
  Visual Growth Reduction (%) 14 DAA Obs: 85%
[8]; Cmpd 1 5 g ae/ha
  Visual Growth Reduction (%) 14 DAA Obs: 90%
[1]; Cmpd 1 1.25 g ae/ha
  Visual Growth Reduction (%) 14 DAA Obs: 50%
[1]; Cmpd 1 2.5 g ae/ha
  Visual Growth Reduction (%) 14 DAA Obs: 60%
[1]; Cmpd 1 5 g ae/ha
  Visual Growth Reduction (%) 14 DAA Obs: 90%
[9]; Cmpd 1 1.25 g ae/ha
  Visual Growth Reduction (%) 14 DAA Obs: 0%
[9]; Cmpd 1 2.5 g ae/ha
  Visual Growth Reduction (%) 14 DAA Obs: 0%
[9]; Cmpd 1 5 g ae/ha
  Visual Growth Reduction (%) 14 DAA Obs: 0%
[2]; Cmpd 1 1.25 g ae/ha
  Visual Growth Reduction (%) 14 DAA Obs: 0%
[2]; Cmpd 1 2.5 g ae/ha
  Visual Growth Reduction (%) 14 DAA Obs: 5%
[2]; Cmpd 1 5 g ae/ha
  Visual Growth Reduction (%) 14 DAA Obs: 20%
[3]; Cmpd 1 1.25 g ae/ha
  Visual Growth Reduction (%) 14 DAA Obs: 70%
[3]; Cmpd 1 2.5 g ae/ha
  Visual Growth Reduction (%) 14 DAA Obs: 80%
[3]; Cmpd 1 5 g ae/ha
  Visual Growth Reduction (%) 14 DAA Obs: 93%
[10]; Cmpd 1 1.25 g ae/ha
  Visual Growth Reduction (%) 14 DAA Obs: 30%
[10]; Cmpd 1 2.5 g ae/ha
  Visual Growth Reduction (%) 14 DAA Obs: 50% and 30%
[10]; Cmpd 1 5 g ae/ha
  Visual Growth Reduction (%) 14 DAA Obs: 30%
[4]; Cmpd 1 1.25 g ae/ha
  Visual Growth Reduction (%) 14 DAA Obs: 50%
[4]; Cmpd 1 2.5 g ae/ha
  Visual Growth Reduction (%) 14 DAA Obs: 90%
[4]; Cmpd 1 5 g ae/ha
  Visual Growth Reduction (%) 14 DAA Obs: 93%
[11]; Cmpd 1 1.25 g ae/ha
  Visual Growth Reduction (%) 14 DAA Obs: 0%
[11]; Cmpd 1 2.5 g ae/ha
  Visual Growth Reduction (%) 14 DAA Obs: 0%
[11]; Cmpd 1 5 g ae/ha
  Visual Growth Reduction (%) 14 DAA Obs: 0%
[12]; Cmpd 1 1.25 g ae/ha
  Visual Growth Reduction (%) 14 DAA Obs: 95%
[12]; Cmpd 1 2.5 g ae/ha
  Visual Growth Reduction (%) 14 DAA Obs: 95%
[12]; Cmpd 1 5 g ae/ha
  Visual Growth Reduction (%) 14 DAA Obs: 95%
[13]; Cmpd 1 1.25 g ae/ha
  Visual Growth Reduction (%) 14 DAA Obs: 70%
[13]; Cmpd 1 2.5 g ae/ha
  Visual Growth Reduction (%) 14 DAA Obs: 95%
[13]; Cmpd 1 5 g ae/ha
  Visual Growth Reduction (%) 14 DAA Obs: 97%
[14]; Cmpd 1 1.25 g ae/ha
  Visual Growth Reduction (%) 14 DAA Obs: 20%
[14]; Cmpd 1 2.5 g ae/ha
  Visual Growth Reduction (%) 14 DAA Obs: 20%
[14]; Cmpd 1 5 g ae/ha
  Visual Growth Reduction (%) 14 DAA Obs: 40%
[5]; Cmpd 1 1.25 g ae/ha
  Visual Growth Reduction (%) 14 DAA Obs: 10%
[5]; Cmpd 1 2.5 g ae/ha
  Visual Growth Reduction (%) 14 DAA Obs: 20%
[5]; Cmpd 1 5 g ae/ha
  Visual Growth Reduction (%) 14 DAA Obs: 20%
[15]; Cmpd 1 1.25 g ae/ha
  Visual Growth Reduction (%) 14 DAA Obs: 0%
[15]; Cmpd 1 2.5 g ae/ha
  Visual Growth Reduction (%) 14 DAA Obs: 0%
[15]; Cmpd 1 5 g ae/ha
  Visual Growth Reduction (%) 14 DAA Obs: 30%
[16]; Cmpd 1 1.25 g ae/ha
  Visual Growth Reduction (%) 14 DAA Obs: 0%
[16]; Cmpd 1 2.5 g ae/ha
  Visual Growth Reduction (%) 14 DAA Obs: 0%
[16]; Cmpd 1 5 g ae/ha
  Visual Growth Reduction (%) 14 DAA Obs: 0%
[6]; Cmpd 1 1.25 g ae/ha
  Visual Growth Reduction (%) 14 DAA Obs: 30%
[6]; Cmpd 1 2.5 g ae/ha
  Visual Growth Reduction (%) 14 DAA Obs: 20%
[6]; Cmpd 1 5 g ae/ha
  Visual Growth Reduction (%) 14 DAA Obs: 40%
[7]; Cmpd 1 1.25 g ae/ha
  Visual Growth Reduction (%) 14 DAA Obs: 10%
[7]; Cmpd 1 2.5 g ae/ha
  Visual Growth Reduction (%) 14 DAA Obs: 10%
[7]; Cmpd 1 5 g ae/ha
  Visual Growth Reduction (%) 14 DAA Obs: 30%

Reference: patent US20140213446A1, “HERBICIDAL COMPOSITIONS AND METHODS USING COMBINATIONS OF 4-AMINO-3-CHLORO-6-(4-CHLORO-2-FLUORO-3-METHOXYPHENYL)PYRIDINE-2-CARBOXYLIC ACID OR A DERIVATIVE THEREOF AND AN ARYLOXYPHENOXY PROPIONATE ACCASE INHIBITOR HERBICIDE” (DOW AGROSCIENCES LLC, priority 2013, published 2014)
